# Experiments:
# [1] = tested on: Staphylococcus aureus (ATCC No. 6538); experiment: Antimicrobial efficacy (challenge) test, plate count; assay type: cell-based; settings: 30 mM FPB aqueous solution, 25° C., initial contamination 5.2 × 10^5 CFU/g
# [2] = Stability of 2-FBA under formulation conditions, amount by chromatography; assay type: physicochemical
# Experimental: 2-Formylphenyl Boronic Acid (2-FBA) was exposed to various formulation conditions, in order to assess its optimized formulation stability properties. The amount of 2-FBA was assessed prior to the experiment and following the exposure to the different conditions by chromatography. The conditions are detailed in the following Table.
# [3] = tested on: Staphylococcus aureus (ATCC No. 6538); experiment: Antimicrobial efficacy (challenge) test, plate count; assay type: cell-based; settings: for No. of Surviving Microorganisms CFU/g: 25° C., initial contamination 5.2 × 10^5 CFU/g; for antimicrobial effect in words: following one day of exposure
# Experimental: (§1) The purpose of this study was to assess the antimicrobial efficacy of 2-Formylphenyl boronic acid (FPB) aqueous solutions, in different concentrations of 10 mM, 20 mM and 40 mM. 2-FBP was obtained from Sigma Aldrich. Test Procedure: The test consisted of challenging the test solutions with specified microorganisms, storing the inoculated preparations at a prescribed temperature, removing the inoculated samples at specified intervals of time and counting the number of viable organisms in the withdrawn samples using a plate count procedure. The technical details were as follows: • The test was conducted in 20 g samples. • Each sample was separately inoculated by one of the test organisms. • The inoculated containers were incubated at 25° C. together with an uninoculated sample. • The inoculated container with P. acnes was incubated under anaerobic conditions at the same temperature. • The culture media for P. acnes was Brain Heart Infusion Agar instead of Tryptic Soy Agar. Formulations were challenged by introducing the following microorganisms: Staphylococcus aureus (ATCC No. 6538) Counting of microorganisms in the inoculated samples was performed 1, 2 and 7 days following inoculation. The number of colony-forming units (cfu/g) determined at each incubation time point was compared to the number of cfu/g measured in non-inoculated control samples of FPB solutions. Antimicrobial effectiveness results, expressed as colony forming units of surviving microorganisms in the FPB solutions (cfu/g), are detailed in Tables 1-3.
# [4] = tested on: Propionbacterium acnes ATCC 11827; experiment: Antimicrobial efficacy (challenge) test, plate count, anaerobic incubation; assay type: cell-based; settings: for No. of Surviving Microorganisms CFU/g: 25° C. anaerobic, initial contamination 4.1 × 10^5 CFU/g; for antimicrobial effect in words: following one day of exposure
# Experimental: as §1, with “Propionbacterium acnes ATCC 11827” for “Staphylococcus aureus (ATCC No. 6538)”
# [5] = Solubility and compatibility of FPB in the carrier; assay type: physicochemical; settings: for solubility in the carrier: 20 mM and 40 mM
# From the text: The active agent FPB is soluble in the carrier.
# [6] = tested on: Escherichia coli (ATCC No. 8739); experiment: Antimicrobial efficacy (challenge) test, plate count; assay type: cell-based; settings: for No. of Surviving Microorganisms CFU/g: 25° C., initial contamination 2.8 × 10^5 CFU/g; for antimicrobial effect in words: following one day of exposure
# Experimental: as §1, with “2-FBP” for “The purpose of this study was to assess the antimicrobial efficacy of 2-Formylphenyl boronic acid (FPB) aqueous solutions, in different concentrations of 10 mM, 20 mM and 40 mM. 2-FBP”, “Escherichia coli” for “Staphylococcus aureus”, “8739)” for “6538)”
# [7] = tested on: Propionbacterium acnes ATCC 11827; experiment: Antimicrobial efficacy (challenge) test, plate count, anaerobic incubation; assay type: cell-based; settings: 30 mM FPB aqueous solution, 25° C. anaerobic, initial contamination 4.1 × 10^5 CFU/g
# [8] = tested on: Pseudomonas aeruginosa (ATCC No. 9027); experiment: Antimicrobial efficacy (challenge) test, plate count; assay type: cell-based; settings: for No. of Surviving Microorganisms CFU/g: 25° C., initial contamination 4.3 × 10^6 CFU/g; for antimicrobial effect in words: following one day of exposure
# Experimental: as §1, with “2-FBP” for “The purpose of this study was to assess the antimicrobial efficacy of 2-Formylphenyl boronic acid (FPB) aqueous solutions, in different concentrations of 10 mM, 20 mM and 40 mM. 2-FBP”, “Pseudomonas aeruginosa” for “Staphylococcus aureus”, “9027)” for “6538)”
# [9] = 10 mM FPB aqueous solution, 1 week
# [10] = 10 mM FPB aqueous solution, 1 days
# [11] = 10 mM FPB aqueous solution, 2 days
# [12] = 20 mM FPB aqueous solution, 1 week
# [13] = 20 mM FPB aqueous solution, 1 days
# [14] = 20 mM FPB aqueous solution, 2 days
# [15] = Solution 1 (10 mM FPB), within two days of exposure
# [16] = solutions, concentrations of 10 mM, 20 mM and 40 mM
compound,measurement,setting,value
"O=Cc1ccccc1B(O)O [FPB, 2-Formylphenyl boronic acid]",No. of Surviving Microorganisms CFU/g,[1]; 1 week,<10 CFU/g
same,No. of Surviving Microorganisms CFU/g,[1]; 1 days,<10 CFU/g
same,No. of Surviving Microorganisms CFU/g,[1]; 2 days,<10 CFU/g
same,stability in words,[2]; UV light,relatively stable
same,stability in words,[2]; heat,relatively stable
same,stability in words,[2]; in the presence of H2O2,underwent degradation
same,stability in words,[2]; in the presence of HCl (0.1 N),underwent degradation
same,stability in words,[2]; in the presence of NaOH (0.1 N),relatively stable
same,No. of Surviving Microorganisms CFU/g,[3]; [9],<10 CFU/g
same,No. of Surviving Microorganisms CFU/g,[3]; [10],4.5 × 10^4 CFU/g
same,No. of Surviving Microorganisms CFU/g,[3]; [11],5.4 × 10^2 CFU/g
same,No. of Surviving Microorganisms CFU/g,[3]; [12],<10 CFU/g
same,No. of Surviving Microorganisms CFU/g,[3]; [13],<10 CFU/g
same,No. of Surviving Microorganisms CFU/g,[3]; [14],<10 CFU/g
same,log reduction of the count from the initial load,[3]; [15],2.0 log
same,antimicrobial effect in words,[3]; Solution 2 (20 mM FBA),completely eradicated
same,antimicrobial effect in words,[3]; Solution 3 (40 mM FBA),completely eradicated
same,effectiveness (conclusion),[3]; [16],effective
same,No. of Surviving Microorganisms CFU/g,[4]; [9],<10 CFU/g
same,No. of Surviving Microorganisms CFU/g,[4]; [10],<10 CFU/g
same,No. of Surviving Microorganisms CFU/g,[4]; [11],<10 CFU/g
same,No. of Surviving Microorganisms CFU/g,[4]; [12],<10 CFU/g
same,No. of Surviving Microorganisms CFU/g,[4]; [13],<10 CFU/g
same,No. of Surviving Microorganisms CFU/g,[4]; [14],<10 CFU/g
same,antimicrobial effect in words,[4]; Solution 1 (10 mM FPB),completely destroyed
same,antimicrobial effect in words,[4]; Solution 2 (20 mM FBA),completely eradicated
same,antimicrobial effect in words,[4]; Solution 3 (40 mM FBA),completely eradicated
same,effectiveness (conclusion),[4]; [16],effective
same,interference with foam formation,[5]; emulsion carrier (Example 2),does not interfere
same,interference with the formation of an emulsion,[5]; emulsion carrier (Example 2),does not interfere
same,solubility in the carrier,[5]; emulsion carrier (Example 2),soluble
same,interference with foam formation,[5]; gel carrier (Example 3),does not interfere
same,solubility in the carrier,[5]; gel carrier (Example 3),soluble
same,No. of Surviving Microorganisms CFU/g,[6]; [9],<10 CFU/g
same,No. of Surviving Microorganisms CFU/g,[6]; [10],6.4 × 10^4 CFU/g
same,No. of Surviving Microorganisms CFU/g,[6]; [11],<10 CFU/g
same,No. of Surviving Microorganisms CFU/g,[6]; [12],<10 CFU/g
same,No. of Surviving Microorganisms CFU/g,[6]; [13],7.6 × 10^3 CFU/g
same,No. of Surviving Microorganisms CFU/g,[6]; [14],<10 CFU/g
same,No. of Surviving Microorganisms CFU/g,"[6]; 30 mM FPB aqueous solution, 1 week",<10 CFU/g
same,No. of Surviving Microorganisms CFU/g,"[6]; 30 mM FPB aqueous solution, 1 days",<10 CFU/g
same,No. of Surviving Microorganisms CFU/g,"[6]; 30 mM FPB aqueous solution, 2 days",<10 CFU/g
same,log reduction of the count from the initial load,[6]; [15],2.0 log
same,antimicrobial effect in words,[6]; Solution 2 (20 mM FBA),completely eradicated
same,antimicrobial effect in words,[6]; Solution 3 (40 mM FBA),completely eradicated
same,effectiveness (conclusion),[6]; [16],effective
same,No. of Surviving Microorganisms CFU/g,[7]; 1 week,<10 CFU/g
same,No. of Surviving Microorganisms CFU/g,[7]; 1 days,<10 CFU/g
same,No. of Surviving Microorganisms CFU/g,[7]; 2 days,<10 CFU/g
same,No. of Surviving Microorganisms CFU/g,[8]; [9],<10 CFU/g
same,No. of Surviving Microorganisms CFU/g,[8]; [10],4.3 × 10^4 CFU/g
same,No. of Surviving Microorganisms CFU/g,[8]; [11],5.0 × 10^1 CFU/g
same,No. of Surviving Microorganisms CFU/g,[8]; [12],<10 CFU/g
same,No. of Surviving Microorganisms CFU/g,[8]; [13],<10 CFU/g
same,No. of Surviving Microorganisms CFU/g,[8]; [14],<10 CFU/g
same,log reduction of the count from the initial load,[8]; [15],2.0 log
same,antimicrobial effect in words,[8]; Solution 2 (20 mM FBA),completely eradicated
same,antimicrobial effect in words,[8]; Solution 3 (40 mM FBA),completely eradicated
same,effectiveness (conclusion),[8]; [16],effective
